Results taken from US9695192B2, “Fused heterocyclic compounds as ion channel modulators” (GILEAD SCIENCES, INC., priority 2011, dated 2017).

target: wild-type human cardiac sodium channel, hNav1.5 (Homo sapiens, UniProt Q14524); assay: Late INa screening assay (QPatch whole cell patch clamp, tefluthrin-enhanced late sodium current); format: cell-based; details: HEK293 hNav1.5, late INa activated with 10 μM Tefluthrin
Method: The late sodium current (Late INa) and peak sodium current (Peak INa) assays are performed on an automated electrophysiology platform, QPatch 16X (Sophion Bioscience, Copenhagen, Denmark), which uses the whole cell patch clamp technique to measure currents through the cell membrane of up to 16 cells at a time. The assay uses an HEK293 (human embryonic kidney) cell line heterologously expressing the wild-type human cardiac sodium channel, hNav1.5, purchased from Millipore (Billerica, Mass.). No beta subunits were coexpressed with the Na channel alpha subunit. Cells are maintained with standard tissue culture procedures and stable channel expression is maintained with 400 μg/mL Geneticin in the culture medium. Cells isolated for use on QPatch are incubated for 5 minutes in Detachin 1X (Genlantis, San Diego, USA) at 37° C. to ensure that 80-90% of the cells are single and not part of a cell cluster. Experiments are carried out at 23-25° C.
For both the Late INa and Peak INa assays, series resistance compensation is set to 100% and series resistance and whole-cell compensation are performed automatically. Currents are digitized at 25 kHz and low-pass filtered at 12 kHz and 10 kHz for the late and peak INa assays, respectively. Currents through open sodium channels are automatically recorded and stored in the Sophion Bioscience Oracle database (Sophion Bioscience, Copenhagen, Denmark). Analysis is performed using QPatch Assay and database software and data are compiled in Excel.
Compound stocks are routinely made by the Gilead Sample Bank in plastic vials to 10 mM in dimethyl sulfoxide (DMSO). In some cases, when compounds are not soluble in DMSO, they are made in 100% ethanol. Stocks are sonicated as necessary. The extracellular solution for screening Late INa is composed of: 140 mM NaCl, 4 mM KCl, 1.8 mM CaCl2, 0.75 mM MgCl2 and 5 mM HEPES with pH adjusted to 7.4 using NaOH. The intracellular solution used to perfuse the inside of the cells for both the Late INa and Peak INa assays contains: 120 mM CsF, 20 mM CsCl, 5 mM EGTA, 5 mM HEPES and pH adjusted to 7.4 with CsOH. Compounds are diluted in extracellular solution to 1 μM in glass vials and then transferred to glass well plates before robotic addition to the cells. A 0 mM Na extracellular solution (0 Na-ECF) is used at the end of each experiment for the Late INa and Peak INa assays to measure baseline current contains: 140 mM N-methyl-D-glucamine; 4 mM KCl; 1.8 mM CaCl2; 0.75 mM MgCl2; 5 mM HEPES and pH was adjusted to 7.4 with HCl.
For the hNav1.5 Late INa assay, sodium channels are activated every 10 seconds (0.1 Hz) by depolarizing the cell membrane to −20 mV for 250 milliseconds (ms) from a holding potential of −120 mV. In response to a −20 mV voltage step, typical hNav1.5 sodium currents activate rapidly to a peak negative current and then inactivate nearly completely within 3-4 ms.
Compounds were tested to determine their activity in blocking the late sodium current. Late INa was generated by adding 10 μM Tefluthrin (pyrethroid) to the extracellular solution while recording Na currents. To confirm the block of late INa observed using the automated screening method, a second late INa enhancer (ATX-II) and the manual patch clamp method were used. ATX-II and tefluthrin occupy distinct, non-overlapping binding sites and modify Na^+ channel function differently to increase late INa. Compounds tested have been found generally to inhibit the enhanced late INa caused by either late INa enhancer. For the purposes of the screening, late INa is defined as the mean current between 225 ms and 250 ms after stepping to −20 mV to activate Na channels. After establishing the whole cell recording configuration, late INa activator is added to each well 4 times over a 16-17 minute period so that the late component of the Na current reaches a stable value. Compounds were then added (typically at 1 μM), in the presence of the late INa activator, with 3 additions over the course of 7 or 8 minutes. […]

Sequence of wild-type human cardiac sodium channel, hNav1.5 (Q14524 whole entry): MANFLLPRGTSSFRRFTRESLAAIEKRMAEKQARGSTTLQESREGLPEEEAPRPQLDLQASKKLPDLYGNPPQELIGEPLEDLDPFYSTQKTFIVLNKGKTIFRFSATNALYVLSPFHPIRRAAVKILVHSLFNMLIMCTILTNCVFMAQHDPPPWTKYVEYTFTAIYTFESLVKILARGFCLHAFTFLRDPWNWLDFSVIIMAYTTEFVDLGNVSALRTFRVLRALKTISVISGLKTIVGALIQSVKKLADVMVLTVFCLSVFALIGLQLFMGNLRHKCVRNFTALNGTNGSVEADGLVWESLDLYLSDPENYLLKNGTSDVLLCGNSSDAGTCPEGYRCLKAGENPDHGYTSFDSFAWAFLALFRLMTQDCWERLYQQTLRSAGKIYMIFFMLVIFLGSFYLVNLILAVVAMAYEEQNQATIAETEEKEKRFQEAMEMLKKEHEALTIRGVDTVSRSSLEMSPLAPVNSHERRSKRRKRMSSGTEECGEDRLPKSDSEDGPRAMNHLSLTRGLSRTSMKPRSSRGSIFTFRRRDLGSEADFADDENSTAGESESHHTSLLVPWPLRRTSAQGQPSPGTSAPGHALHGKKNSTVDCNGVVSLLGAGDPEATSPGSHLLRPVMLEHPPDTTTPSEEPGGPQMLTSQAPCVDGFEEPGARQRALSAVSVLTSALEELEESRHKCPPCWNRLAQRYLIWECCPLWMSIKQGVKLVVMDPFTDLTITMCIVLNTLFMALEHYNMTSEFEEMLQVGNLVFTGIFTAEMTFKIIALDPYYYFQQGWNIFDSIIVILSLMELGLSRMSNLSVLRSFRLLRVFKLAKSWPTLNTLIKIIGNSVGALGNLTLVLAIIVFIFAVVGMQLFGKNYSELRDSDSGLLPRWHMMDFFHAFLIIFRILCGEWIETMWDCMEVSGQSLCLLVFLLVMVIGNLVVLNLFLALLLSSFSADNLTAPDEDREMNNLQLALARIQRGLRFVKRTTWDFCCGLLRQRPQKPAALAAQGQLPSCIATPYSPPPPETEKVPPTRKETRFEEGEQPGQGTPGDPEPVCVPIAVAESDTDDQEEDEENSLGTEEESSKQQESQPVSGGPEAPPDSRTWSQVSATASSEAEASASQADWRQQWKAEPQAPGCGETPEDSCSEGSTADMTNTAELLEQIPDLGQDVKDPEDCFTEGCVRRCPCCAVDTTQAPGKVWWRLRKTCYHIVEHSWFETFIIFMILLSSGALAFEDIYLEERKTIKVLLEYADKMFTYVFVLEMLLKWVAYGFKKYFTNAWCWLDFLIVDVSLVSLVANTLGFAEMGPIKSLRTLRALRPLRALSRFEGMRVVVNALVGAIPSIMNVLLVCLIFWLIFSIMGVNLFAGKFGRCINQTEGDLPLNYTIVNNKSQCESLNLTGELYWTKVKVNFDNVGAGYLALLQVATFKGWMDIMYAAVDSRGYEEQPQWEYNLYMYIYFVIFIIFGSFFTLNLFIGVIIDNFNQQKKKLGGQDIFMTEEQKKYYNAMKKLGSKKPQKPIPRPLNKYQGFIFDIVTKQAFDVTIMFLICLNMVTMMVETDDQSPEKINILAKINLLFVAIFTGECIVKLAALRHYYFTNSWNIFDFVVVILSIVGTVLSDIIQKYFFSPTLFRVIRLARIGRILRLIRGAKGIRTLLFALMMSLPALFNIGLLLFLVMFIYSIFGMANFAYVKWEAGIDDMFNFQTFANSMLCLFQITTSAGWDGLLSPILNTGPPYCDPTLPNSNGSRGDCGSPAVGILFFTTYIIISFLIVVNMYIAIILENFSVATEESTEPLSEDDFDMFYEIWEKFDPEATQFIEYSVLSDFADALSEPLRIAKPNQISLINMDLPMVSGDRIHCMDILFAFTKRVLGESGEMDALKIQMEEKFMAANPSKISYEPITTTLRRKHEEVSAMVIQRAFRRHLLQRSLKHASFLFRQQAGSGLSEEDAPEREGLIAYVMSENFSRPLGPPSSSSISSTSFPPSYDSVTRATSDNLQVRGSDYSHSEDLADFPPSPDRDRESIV

`FC(F)(F)c1ccc(-c2ccc3c(c2)-c2nncn2CCO3)cc1` [Compound I-3, 10-(4-(trifluoromethyl)phenyl)-5,6-dihydrobenzo[f][1,2,4]triazolo[4,3-d][1,4]oxazepine] and `Cc1cn2c(n1)-c1cc(-c3ccc(C(F)(F)F)cc3)ccc1OCC2` [Compound I-19, 2-methyl-10-(4-(trifluoromethyl)phenyl)-5,6-dihydrobenzo[f]imidazo[1,2-d][1,4]oxazepine] are the same in inhibition at 1 µM: 13% for the first, 13% for the second.

Going from `Cc1nnc2n1CCOc1ccc(-c3ccc(C(F)(F)F)cc3)cc1-2` [Compound I-4, 3-methyl-10-(4-(trifluoromethyl)phenyl)-5,6-dihydrobenzo[f][1,2,4]triazolo[4,3-d][1,4]oxazepine] to `FC(F)(F)c1ccc(-c2ccc3c(c2)-c2nnc(C4CC4)n2CCO3)cc1` [Compound I-5, 3-cyclopropyl-10-(4-(trifluoromethyl)phenyl)-5,6-dihydrobenzo[f][1,2,4]triazolo[4,3-d][1,4]oxazepine], the inhibition at 1 µM rises from 10% to 18%.

First: FC(F)(F)c1ccc(-c2ccc3c(c2)-c2ncc(-c4ncccn4)n2CCO3)cc1 [Compound I-7, 3-(pyrimidin-2-yl)-10-(4-(trifluoromethyl)phenyl)-5,6-dihydrobenzo[f]imidazo[1,2-d][1,4]oxazepine]
Second: N#Cc1cnc2n1CCOc1ccc(-c3ccc(C(F)(F)F)cc3)cc1-2 [Compound I-16, 10-(4-(trifluoromethyl)phenyl)-5,6-dihydrobenzo[f]imidazo[1,2-d][1,4]oxazepine-3-carbonitrile]
The inhibition at 1 µM of the first is higher: 17% for the first, 1% for the second.

Compared with `FC(F)(F)c1ccc(-c2ccc3c(c2)C2=NCCCN2CCO3)cc1` [Compound I-8, 11-(4-(trifluoromethyl)phenyl)-3,4,6,7-tetrahydro-2H-benzo[f]pyrimido[1,2-d][1,4]oxazepine], `FC(F)(F)c1ccc(-c2ccc3c(c2)C(N2CCCC2)=NCCO3)cc1` [II-3, 5-(pyrrolidin-1-yl)-7-(4-(trifluoromethyl)phenyl)-2,3-dihydrobenzo[f][1,4]oxazepine] is higher in inhibition at 1 µM: 9% for the first, 25% for the second.

Going from `CC(=O)c1cnc2n1CCOc1ccc(-c3ccc(C(F)(F)F)cc3)cc1-2` [Compound I-15, 1-(10-(4-(trifluoromethyl)phenyl)-5,6-dihydrobenzo[f]imidazo[1,2-d][1,4]oxazepin-3-yl)ethanone] to `O=C(O)c1cn2c(n1)-c1cc(-c3ccc(C(F)(F)F)cc3)ccc1OCC2` [Compound I-22, 10-(4-(trifluoromethyl)phenyl)-5,6-dihydrobenzo[f]imidazo[1,2-d][1,4]oxazepine-2-carboxylic acid], the inhibition at 1 µM falls from 12% to 5%.

First: Cc1cnc2n1CCOc1ccc(-c3ccc(OC(F)(F)F)cc3)cc1-2 [Compound I-17, 3-methyl-10-(4-(trifluoromethoxy)phenyl)-5,6-dihydrobenzo[f]imidazo[1,2-d][1,4]oxazepine]
Second: FC(F)(F)Oc1ccc(-c2ccc3c(c2)-c2ncc(C4CC4)n2CCO3)cc1 [Compound I-18, 3-cyclopropyl-10-(4-(trifluoromethoxy)phenyl)-5,6-dihydrobenzo[f]imidazo[1,2-d][1,4]oxazepine]
The inhibition at 1 µM of the first is lower: 14% for the first, 20% for the second.

First: FC(F)(F)c1ccc(-c2ccc3c(c2)-c2nc(C4CC4)cn2CCO3)cc1 [Compound I-20, 2-cyclopropyl-10-(4-(trifluoromethyl)phenyl)-5,6-dihydrobenzo[f]imidazo[1,2-d][1,4]oxazepine]
Second: Cn1cncc1-c1cn2c(n1)-c1cc(-c3ccc(C(F)(F)F)cc3)ccc1OCC2 [Compound I-23, 2-(1-methyl-1H-imidazol-5-yl)-10-(4-(trifluoromethyl)phenyl)-5,6-dihydrobenzo[f]imidazo[1,2-d][1,4]oxazepine]
The inhibition at 1 µM of the first is higher: 12% for the first, 3% for the second.

First: FC(F)(F)c1ccc(-c2ccc3c(c2)C(N2CCOCC2)=NCCO3)cc1 [II-1, 5-morpholino-7-(4-(trifluoromethyl)phenyl)-2,3-dihydrobenzo[f][1,4]oxazepine]
Second: NC1CN(C2=NCCOc3ccc(-c4ccc(C(F)(F)F)cc4)cc32)C1 [II-18, 1-(7-(4-(trifluoromethyl)phenyl)-2,3-dihydrobenzo[f][1,4]oxazepin-5-yl)azetidin-3-amine]
The inhibition at 1 µM of the first is higher: 21% for the first, 9% for the second.

First: FC(F)(F)c1ccc(-c2ccc3c(c2)C(NC2CC2)=NCCO3)cc1 [II-4, N-cyclopropyl-7-(4-(trifluoromethyl)phenyl)-2,3-dihydrobenzo[f][1,4]oxazepin-5-amine]
Second: CN(C1=NCCOc2ccc(-c3ccc(C(F)(F)F)cc3)cc21)C1CC1 [II-8, N-cyclopropyl-N-methyl-7-(4-(trifluoromethyl)phenyl)-2,3-dihydrobenzo[f][1,4]oxazepin-5-amine]
The inhibition at 1 µM of the first is higher: 25% for the first, 13% for the second.

First: CN(Cc1ccccc1)C1=NCCOc2ccc(-c3ccc(C(F)(F)F)cc3)cc21 [II-5, N-benzyl-N-methyl-7-(4-(trifluoromethyl)phenyl)-2,3-dihydrobenzo[f][1,4]oxazepin-5-amine]
Second: FC(F)(F)c1ccc(-c2ccc3c(c2)C(NCc2ccccn2)=NCCO3)cc1 [II-10, N-(pyridin-2-ylmethyl)-7-(4-(trifluoromethyl)phenyl)-2,3-dihydrobenzo[f][1,4]oxazepin-5-amine]
The inhibition at 1 µM of the first is lower: 28% for the first, 32% for the second.

Going from `FC1(F)CCN(C2=NCCOc3ccc(-c4ccc(C(F)(F)F)cc4)cc32)C1` [II-6, 5-(3,3-difluoropyrrolidin-1-yl)-7-(4-(trifluoromethyl)phenyl)-2,3-dihydrobenzo[f][1,4]oxazepine] to `OC[C@H]1CCN(C2=NCCOc3ccc(-c4ccc(C(F)(F)F)cc4)cc32)C1` [II-16, (S)-(1-(7-(4-(trifluoromethyl)phenyl)-2,3-dihydrobenzo[f][1,4]oxazepin-5-yl)pyrrolidin-3-yl)methanol], the inhibition at 1 µM rises from 7% to 13%.

Going from `FC(F)(F)c1ccc(-c2ccc3c(c2)C(NCc2ncccn2)=NCCO3)cc1` [II-7, N-(pyrimidin-2-ylmethyl)-7-(4-(trifluoromethyl)phenyl)-2,3-dihydrobenzo[f][1,4]oxazepin-5-amine] to `Fc1cccnc1CNC1=NCCOc2ccc(-c3ccc(C(F)(F)F)cc3)cc21` [II-9, N-((3-fluoropyridin-2-yl)methyl)-7-(4-(trifluoromethyl)phenyl)-2,3-dihydrobenzo[f][1,4]oxazepin-5-amine], the inhibition at 1 µM rises from 14% to 23%.

Compared with `CC(C)(C)OC(=O)NC1CN(C2=NCCOc3ccc(-c4ccc(C(F)(F)F)cc4)cc32)C1` [II-12, tert-butyl 1-(7-(4-(trifluoromethyl)phenyl)-2,3-dihydrobenzo[f][1,4]oxazepin-5-yl)azetidin-3-ylcarbamate], `CC(C)(C)OC(=O)N[C@H]1CCN(C2=NCCOc3ccc(-c4ccc(C(F)(F)F)cc4)cc32)C1` [II-13, (S)-tert-butyl 1-(7-(4-(trifluoromethyl)phenyl)-2,3-dihydrobenzo[f][1,4]oxazepin-5-yl)pyrrolidin-3-ylcarbamate] is higher in inhibition at 1 µM: 9% for the first, 15% for the second.

Going from `FC(F)(F)c1ccc(-c2ccc3c(c2)C(NCCn2ccnc2)=NCCO3)cc1` [II-14, N-(2-(1H-imidazol-1-yl)ethyl)-7-(4-(trifluoromethyl)phenyl)-2,3-dihydrobenzo[f][1,4]oxazepin-5-amine] to `Cn1ccnc1CNC1=NCCOc2ccc(-c3ccc(C(F)(F)F)cc3)cc21` [II-17, N-((1-methyl-1H-imidazol-2-yl)methyl)-7-(4-(trifluoromethyl)phenyl)-2,3-dihydrobenzo[f][1,4]oxazepin-5-amine], the inhibition at 1 µM falls from 17% to 10%.
